The record followed here is patent publication US20250136614A1, “2,7-SUBSTITUTED PYRROLO[2,1-F][1,2,4]TRIAZINE COMPOUND HAVING PROTEIN KINASE INHIBITORY ACTIVITY” (Magicbullettherapeutics Co., Ltd., priority 2021, published 2025).

The structures appear in SMILES notation.

Type in all cases: cell-based
Test [1] relates to MDA-MB-231. Briefly: Cancer cell growth inhibition (CellTiter-Glo, 72 hours). The note with it: Homo sapiens, MDA-MB-231 cells, read-out: GI50s (μM) MDA-MB-231. Here is the method:
(§1) Seeding 3000 cells per well in a 96-well plate. After cell stabilization, treat the cells with compounds diluted in 0.5% DMSO at a ⅓ serial dilution and culture for 72 hours. Following treatment with CellTiter-Glo, luminescence is produced only in the presence of ATP, as luciferase degrades luciferin. Luminescence values were measured using Envision (PerkinElmer). Based on the measured luminescence values, the concentration of compounds causing cell death was calculated to determine the GI50 value.
(§2) The activity values were categorized into three levels • A: IC50<1 μM • B: 1 μM≤IC50<10 μM, • C: IC50≥10 μM

In test [2] the test system is HCT116. Described as above. The settings on record: Homo sapiens, HCT-116, HCT116 cells, read-out: GI50s (μM) HCT116. Here is the method: as §1, §2
Test [3] concerns H358. The test is described as above. The settings on record: Homo sapiens, NCI-H358, H358 cells, read-out: GI50s (μM) H358. As to the method: as §1, §2
In test [4] the test system is H23. Described as above. The note with it: Homo sapiens, NCI-H23, H23 cells, read-out: GI50s (μM) H23. As to the method: as §1, §2
Test [5] relates to colo205. Described as above. The settings on record: Homo sapiens, COLO 205, colo205 cells, read-out: GI50s (μM) colo205. Here is the method: as §1, §2
Test [6] relates to H1975. The description is as above. The settings on record: Homo sapiens, NCI-H1975, H1975 cells, read-out: GI50s (μM) H1975. Here is the method: as §1, §2
Test [7] has as its target T1, Ba/F3 FLT3 (ITD/D835YF691L) (Homo sapiens, UniProt P36888, F691L/D835Y, cells depend on it, form not given).
T1 sequence (P36888 1-993 F691L/D835Y): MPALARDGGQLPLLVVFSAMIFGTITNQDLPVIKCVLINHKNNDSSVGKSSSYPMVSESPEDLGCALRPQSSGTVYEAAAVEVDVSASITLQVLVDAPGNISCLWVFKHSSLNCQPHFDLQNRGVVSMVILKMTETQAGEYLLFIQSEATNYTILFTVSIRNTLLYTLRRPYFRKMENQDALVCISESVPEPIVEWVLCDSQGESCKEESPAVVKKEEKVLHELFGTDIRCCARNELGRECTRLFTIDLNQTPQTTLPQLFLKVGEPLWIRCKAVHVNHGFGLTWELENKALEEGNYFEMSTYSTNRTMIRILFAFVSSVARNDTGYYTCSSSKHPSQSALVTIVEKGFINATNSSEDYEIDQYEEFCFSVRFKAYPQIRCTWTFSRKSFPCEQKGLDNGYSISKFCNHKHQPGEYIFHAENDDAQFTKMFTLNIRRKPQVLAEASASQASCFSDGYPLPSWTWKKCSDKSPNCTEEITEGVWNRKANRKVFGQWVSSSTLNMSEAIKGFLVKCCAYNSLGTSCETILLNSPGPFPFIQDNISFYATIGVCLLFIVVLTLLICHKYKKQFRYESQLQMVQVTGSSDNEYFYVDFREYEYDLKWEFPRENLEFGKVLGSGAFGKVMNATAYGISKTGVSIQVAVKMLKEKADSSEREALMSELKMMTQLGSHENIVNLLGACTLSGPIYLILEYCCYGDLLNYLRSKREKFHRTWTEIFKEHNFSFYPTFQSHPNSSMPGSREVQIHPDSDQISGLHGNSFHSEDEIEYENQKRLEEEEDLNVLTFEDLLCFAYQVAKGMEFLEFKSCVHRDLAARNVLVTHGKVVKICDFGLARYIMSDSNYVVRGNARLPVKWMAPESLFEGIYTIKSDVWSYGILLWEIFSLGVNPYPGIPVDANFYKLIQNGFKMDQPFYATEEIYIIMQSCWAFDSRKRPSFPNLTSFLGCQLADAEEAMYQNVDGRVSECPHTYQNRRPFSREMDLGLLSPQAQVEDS
Briefly: Ba/F3 cell growth inhibition (CellTiter-Glo, 72 hours). The settings on record: read-out: Ba/F3 GI50s (μM) FLT3 (ITD/D835YF691L). As to the method: Seeding 3000 cells per well in a 96-well plate. After cell stabilization, treat the cells with compounds diluted in […] at a ⅓ serial dilution and culture for 72 hours. Following treatment with CellTiter-Glo, luminescence is produced only in the presence of ATP, as luciferase degrades luciferin. Luminescence values were measured using Envision (PerkinElmer). Based on the measured luminescence values, the concentration of compounds causing cell death was calculated to determine the GI50 value.
The activity values were categorized into three levels. • A: IC50<1 μM • B: 1 μM≤IC50<10 μM, • C: IC50≥10 μM
In general terms: Cellular ATP, detected with luciferase, serves as a proxy for viable cell number.

For `O=C1CCCCCCOc2ccc(cc2F)-c2ccc3cnc(nn23)Nc2ccc(cc2)OCCCN1` [Example 20, (Z)-13-fluoro-5,17-dioxa-3,9-diaza-2(7,2)-pyrrolo[2,1-f][1,2,4]triazina-1,4(1,4)-dibenzenacycloheptadecaphan-10-one], the IC50 in test [1], in test [2], in test [3], in test [4], in test [5] and in test [6] was ≥ 10 µM throughout. Further, the GI50 in test [7] is ≥ 10 µM.
Take `CS(=O)(=O)Nc1cccc(-c2ccc3cnc(Nc4ccc(N5CCN(CCCCCCCOc6cccc7c6C(=O)N(C6CCC(=O)NC6=O)C7=O)CC5)cc4)nn23)c1` (stereo not shown) [Example 41]: the IC50 in test [1], in test [2], in test [3], in test [4], in test [5] and in test [6] was ≥ 10 µM in each case. The GI50 in test [7] was < 1 µM.
As to `O=C1CCCCCCOc2ccc(cc2)-c2ccc3cnc(nn23)Nc2ccc(cc2)OCCCN1` [Example 29, (Z)-5,17-dioxa-3,9-diaza-2(7,2)-pyrrolo[2,1-f][1,2,4]triazina-1,4(1,4)-dibenzenacycloheptadecaphan-10-one], the IC50 in test [1] is ≥ 10 µM; in test [2], 1 to 10 µM; in test [3], 1 to 10 µM; in test [4], 1 to 10 µM; in test [5] it was 1 to 10 µM; in test [6], 1 to 10 µM. The GI50 in test [7] is 1 to 10 µM.
Consider `O=C1COCCOc2ccc(cc2)-c2ccc3cnc(nn23)Nc2cnn(c2)CCCN1` [Example 35, (2^1Z,4^4E)-4^1H-11,14-dioxa-3,8-diaza-2(7,2)-pyrrolo[2,1-f1][1,2,4]triazina-4(4,1)-pyrazola-1(1,4)-benzenacyclotetradecaphan-9-one], for which the IC50 was ≥ 10 µM in test [1]; 1 to 10 µM in test [2]; 1 to 10 µM in test [3]; 1 to 10 µM in test [4]; 1 to 10 µM in test [5]; 1 to 10 µM in test [6]. For the same molecule, in test [7], the GI50 was < 1 µM.
`O=C1CCCCOc2ccc(cc2)-c2ccc3cnc(nn23)Nc2ccc(cc2)OCCCN1` [Example 38, (Z)-5,15-dioxa-3,9-diaza-2(7,2)-pyrrolo[2,1-f][1,2,4]triazina-1,4(1,4)-dibenzenacyclopentadecaphan-10-one]: the IC50 in test [1] was ≥ 10 µM; in test [2], 1 to 10 µM; in test [3] it was 1 to 10 µM; in test [4], ≥ 10 µM; in test [5], ≥ 10 µM; in test [6] it was ≥ 10 µM. Also, the GI50 in test [7] fell in the range of 1 to 10 µM.
For the molecule `CS(=O)(=O)Nc1cccc(-c2ccc3cnc(Nc4ccc(N5CCN(CCCCCOc6cccc7c6C(=O)N(C6CCC(=O)NC6=O)C7=O)CC5)cc4)nn23)c1` (stereo not shown) [Example 39], the IC50 in test [1], in test [2], in test [3], in test [4], in test [5] and in test [6] was ≥ 10 µM in each case. For the same molecule, the GI50 in test [7] was ≥ 10 µM.
For `CS(=O)(=O)N1CCCn2cc(cn2)Nc2ncc3ccc(n3n2)-c2ccc(cc2)OCC1` [Example 9, (2^1Z,4^4E)-8-(methylsulfonyl)-4^1H-11-oxa-3,8-diaza-2(7,2)-pyrrolo[2,1-f][1,2,4]triazina-4(4,1)-pyrazola-1(1,4)-benzenecycloundecaphane], the IC50 in test [1] is ≥ 10 µM; in test [2], < 1 µM; in test [3] it was < 1 µM; in test [4], 1 to 10 µM; in test [5], 1 to 10 µM; in test [6], 1 to 10 µM. The GI50 in test [7] was < 1 µM.
As for `O=C1CCCCOc2ccc(cc2)-c2ccc3cnc(nn23)Nc2cnn(c2)C2CCN(CCCN1)CC2` [Example 26, (2^1Z,4^4E)-4^1H-15-oxa-3,9-diaza-2(7,2)-pyrrolo[2,1-f1][1,2,4]triazina-5(4,1)-piperidina-4(4,1)-pyrazola-1(1,4)-benzenacyclopentadecaphan-10-one], the IC50 in test [1] is ≥ 10 µM; in test [2], < 1 µM; in test [3], < 1 µM; in test [4], < 1 µM; in test [5], < 1 µM; in test [6], < 1 µM. Also, the GI50 in test [7] was < 1 µM.
With `CC(=O)N1CCCn2cc(cn2)Nc2ncc3ccc(n3n2)-c2ccc(cc2)OCC1` [Example 3, 1-((2^1Z,4^4E)-4^1H-11-oxa-3,8-diaza-2(7,2)-pyrrolo[2,1-f1][1,2,4]triazina-4(4,1)-pyrazola-1(1,4)-benzenacycloundecaphane-8-yl)ethan-1-one], the IC50 is 1 to 10 µM in test [1]; < 1 µM in test [2]; 1 to 10 µM in test [3]; 1 to 10 µM in test [4]; 1 to 10 µM in test [5]; 1 to 10 µM in test [6]. In test [7], the GI50 is < 1 µM.
For the molecule `c1cc2ccc1Nc1ncc3ccc(n3n1)-c1ccc(cc1)OCCNCCCO2` [Example 30, (Z)-5,12-dioxa-3,9-diaza-2(7,2)-pyrrolo[2,1-f][1,2,4]triazina-1,4(1,4)-dibenzenacyclododecaphane], the IC50 in test [1], in test [2], in test [3], in test [4], in test [5] and in test [6] was 1 to 10 µM throughout. Besides, the GI50 in test [7] is < 1 µM.
Turning to `O=C1CCCCOc2ccc(cc2)-c2ccc3cnc(nn23)Nc2cnn(c2)C2CCN1CC2` [Example 25, (2^1Z,4^4E)-4^1H-11-oxa-3-aza-2(7,2)-pyrrolo[2,1-f][1,2,4]triazina-5(4,1)-piperidina-4(4,1)-pyrazola-1(1,4)-benzenacycloundecaphan-6-one], the IC50 in test [1] was ≥ 10 µM; in test [2] it was < 1 µM; in test [3], ≥ 10 µM; in test [4], 1 to 10 µM; in test [5], ≥ 10 µM; in test [6], ≥ 10 µM. Also, the GI50 in test [7] lay in the range of 1 to 10 µM.
As for `CN1CCCn2cc(cn2)Nc2ncc3ccc(n3n2)-c2ccc(cc2)OCC1` [Example 2], the IC50 in test [1] is ≥ 10 µM; in test [2], < 1 µM; in test [3] it was < 1 µM; in test [4] it was < 1 µM; in test [5], 1 to 10 µM; in test [6], 1 to 10 µM. The GI50 in test [7] is < 1 µM.
Regarding `O=C1CCCCCCOc2ccc(cc2)-c2ccc3cnc(nn23)Nc2cnn(c2)CCCN1` [Example 37, (2^1Z,4^4E)-4^1H-16-oxa-3,8-diaza-2(7,2)-pyrrolo[2,1-f1][1,2,4]triazina-4(4,1)-pyrazola-1(1,4)-benzenacyclohexadecaphan-9-one], the IC50 is ≥ 10 µM in test [1]; 1 to 10 µM in test [2]; ≥ 10 µM in test [3]; 1 to 10 µM in test [4]; ≥ 10 µM in test [5]; ≥ 10 µM in test [6]. For the same molecule, the GI50 in test [7] was 1 to 10 µM.
